Measured values published in patent US7825114B2, “Substituted aminopyrazolopyridines and salts thereof, pharmaceutical compositions comprising same, methods of preparing same and uses of same” (Bayer Schering Pharma AG, priority 2006, dated 2010).

Experiments:
human c-kit = molecular target: T1, human c-kit (Homo sapiens, UniProt P10721); assay: cKIT-Kinase HTRF-Assay (assay 4); type: biochemical; details: for IC50: GST-tagged kinase domain of human c-kit, 10 μM ATP; for Selectivity vs. cKit: IC50 assay 4/IC50 assay 2
T1 construct: GST-tagged recombinant kinase domain of the human c-kit; GST; host or cells: SF-9 insect cells
Description: Assay 4: cKIT-Kinase HTRF-Assay
c-Kit-inhibitory activity of compounds of the present invention was quantified employing the c-kit HTRF assay as described in the following paragraphs. GST-tagged recombinant kinase domain of the human c-kit expressed in SF-9 cells was used as kinase. As substrate for the kinase reaction biotinylated poly-(Glu,Tyr) (Cis biointernational, France) was used.
c-Kit was incubated for 30 min at 22° C. in the presence of different concentrations of test compounds in 5 μl assay buffer [50 mM Hepes/NaOH pH 7.0, 1 mM MgCl2, 5 mM MnCl2, 1.0 mM dithiothreitol, 0.1 mM sodium ortho-vanadate, 10 μM adenosine-tri-phosphate (ATP), 1.3 μg/ml substrate, 0.001% (v/v) Nonidet-P40 (Sigma), 1% (v/v) dimethylsulfoxide]. The concentration of c-kit was adjusted depending of the activity of the enzyme lot and was chosen appropriate to have the assay in the linear range. The reaction was stopped by the addition of 5 μl of a solution of HTRF detection reagents (0.1 μM streptavidine-XLent and 1 nM PT66-Eu-Chelate, an europium-chelate labelled anti-phospho-tyrosine antibody from Perkin Elmer) in an aqueous EDTA-solution (80 mM EDTA, 0.2% (w/v) bovine serum albumin in 50 mM HEPES/NaOH pH 7.0).
(§1) The resulting mixture was incubated 1 h at 22° C. to allow the binding of the biotinylated phosphorylated peptide to the streptavidine-XLent and the PT66-Eu-Chelate. Subsequently the amount of phosphorylated substrate was evaluated by measurement of the resonance energy transfer from the PT66-Eu-Chelate to the streptavidine-XLent. Therefore, the fluorescence emissions at 620 nm and 665 nm after excitation at 350 nm was measured in a HTRF reader, e.g. a Rubystar (BMG Labtechnologies, Offenburg, Germany) or a Viewlux (Perkin-Elmer). The ratio of the emissions at 665 nm and at 622 nm was taken as the measure for the amount of phosphorylated substrate.

Tie2 [1] = molecular target: T2, Tie2 (Homo sapiens, UniProt Q02763); assay: Tie2 ELISA assay (assay 1): cellular Tie2 autophosphorylation; type: cell-based; parameters: expressed in transfected cells; host or cells: CHO (DHFR-deficient), stably transfected; details: CHO cells stably transfected with Tie2, stimulated by angiopoietin-2; Tie2 autophosphorylation by sandwich-ELISA; read-out: Tie 2 activity (assay 1)
Description: Assay 1: Tie2 ELISA Assay
Cellular activity of compounds of the present invention as inhibitors of Tie2 kinase activity was measured employing a Tie2 ELISA assay as described in the following paragraphs. Herein CHO cell-cultures, which are stably transfected by known techniques with Tie2 using DHFR deficiency as selection marker, are stimulated by angiopoietin-2. The specific autophosphorylation of Tie2 receptors is quantified with a sandwich-ELISA using anti-Tie2 antibodies for catch and anti-phosphotyrosine antibodies coupled to HRP for detection. […]
Target sequence in this assay (Q02763 23-1124): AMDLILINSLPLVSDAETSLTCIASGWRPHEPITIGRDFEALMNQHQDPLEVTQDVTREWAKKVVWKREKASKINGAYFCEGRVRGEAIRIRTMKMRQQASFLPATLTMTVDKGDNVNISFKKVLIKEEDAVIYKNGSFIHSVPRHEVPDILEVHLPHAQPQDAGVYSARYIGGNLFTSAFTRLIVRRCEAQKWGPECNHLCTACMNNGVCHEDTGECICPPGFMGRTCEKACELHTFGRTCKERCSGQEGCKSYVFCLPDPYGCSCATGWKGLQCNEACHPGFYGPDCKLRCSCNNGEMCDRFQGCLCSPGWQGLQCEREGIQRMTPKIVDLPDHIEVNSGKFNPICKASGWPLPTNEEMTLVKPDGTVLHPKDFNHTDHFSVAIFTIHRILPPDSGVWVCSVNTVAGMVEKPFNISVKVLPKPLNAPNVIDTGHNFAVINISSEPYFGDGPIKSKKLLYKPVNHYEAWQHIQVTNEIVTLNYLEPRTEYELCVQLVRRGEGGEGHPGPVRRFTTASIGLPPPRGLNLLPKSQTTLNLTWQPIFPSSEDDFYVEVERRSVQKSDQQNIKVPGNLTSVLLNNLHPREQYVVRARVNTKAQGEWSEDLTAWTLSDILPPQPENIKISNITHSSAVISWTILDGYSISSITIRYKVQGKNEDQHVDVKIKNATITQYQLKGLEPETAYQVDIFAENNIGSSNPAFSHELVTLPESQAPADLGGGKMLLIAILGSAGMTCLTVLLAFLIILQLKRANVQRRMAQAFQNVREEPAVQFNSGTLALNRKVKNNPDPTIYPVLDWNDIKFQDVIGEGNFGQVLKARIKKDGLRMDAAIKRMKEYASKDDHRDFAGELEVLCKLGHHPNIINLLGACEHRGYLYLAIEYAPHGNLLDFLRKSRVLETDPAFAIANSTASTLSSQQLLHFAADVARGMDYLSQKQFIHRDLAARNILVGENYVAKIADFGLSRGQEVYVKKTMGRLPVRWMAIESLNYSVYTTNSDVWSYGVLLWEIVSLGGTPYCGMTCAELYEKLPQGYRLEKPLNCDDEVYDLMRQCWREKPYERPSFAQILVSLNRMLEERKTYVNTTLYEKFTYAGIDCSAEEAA

Tie2 [2] = molecular target: T2, Tie2; assay: Tie-2-Kinase HTRF-Assay without kinase preactivation (assay 2); type: biochemical; parameters: A recombinant fusion protein of GST and the intracellular domains of Tie-2; GST; made in house; host or cells: insect cells (Hi-5); details: GST-Tie-2 intracellular domains, no preactivation, 10 μM ATP
Source text: Assay 2: Tie-2-Kinase HTRF-Assay without Kinase Preactivation
Tie2-inhibitory activity of compounds of the present invention was quantified employing two Tie2 HTRF assay as described in the following paragraphs.
A recombinant fusion protein of GST and the intracellular domains of Tie-2, expressed in insect cells (Hi-5) and purified by Glutathion-Sepharose affinity chromatography was used as kinase. Alternatively, commercially available GST-Tie2-fusion protein (Upstate Biotechnology, Dundee, Scotland) can be used As substrate for the kinase reaction the biotinylated peptide biotin-Ahx-[…] (C-terminus in amid form) was used which can be purchased e.g. from the company Biosynthan GmbH (Berlin-Buch, Germany). Detection of phosphorylated product is achieved specifically by a trimeric detection complex consisting of the phosphorylated substrate, streptavidin-XLent (SA-XLent) which binds to biotin, and Europium Cryptate-labeled anti-phosphotyrosine antibody PT66 which binds to phosphorylated tyrosine.
The reaction was stopped by the addition of 5 μl of an aqueous buffer (25 mM Hepes/NaOH pH 7.5, 0.28% (w/v) bovine serum albumin) containing EDTA (90 mM) and the HTRF (Homogeneous Time Resolved Fluorescence) detection reagents streptavidine-XLent (0.2 μM, from Cis Biointernational, Marcoule, France) and PT66-Eu-Chelate (0.3 ng/μl; a europium-chelate labelled anti-phospho-tyrosine antibody from Perkin Elmer).
as §1, with “substrate peptide” for “substrate”, “substrate peptide.” for “substrate.”
Target sequence in this assay (Q02763 770-1124 limits assumed): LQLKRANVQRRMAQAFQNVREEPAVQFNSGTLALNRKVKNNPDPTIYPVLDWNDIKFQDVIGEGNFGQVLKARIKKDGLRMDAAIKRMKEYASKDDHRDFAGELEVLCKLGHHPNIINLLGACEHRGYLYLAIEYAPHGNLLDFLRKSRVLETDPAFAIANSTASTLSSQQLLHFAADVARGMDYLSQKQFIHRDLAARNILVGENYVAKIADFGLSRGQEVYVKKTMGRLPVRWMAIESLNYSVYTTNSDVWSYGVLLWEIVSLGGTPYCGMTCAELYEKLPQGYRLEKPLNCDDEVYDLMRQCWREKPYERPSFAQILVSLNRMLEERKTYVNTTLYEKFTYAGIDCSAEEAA

T1 sequence (P10721 589-937 limits assumed): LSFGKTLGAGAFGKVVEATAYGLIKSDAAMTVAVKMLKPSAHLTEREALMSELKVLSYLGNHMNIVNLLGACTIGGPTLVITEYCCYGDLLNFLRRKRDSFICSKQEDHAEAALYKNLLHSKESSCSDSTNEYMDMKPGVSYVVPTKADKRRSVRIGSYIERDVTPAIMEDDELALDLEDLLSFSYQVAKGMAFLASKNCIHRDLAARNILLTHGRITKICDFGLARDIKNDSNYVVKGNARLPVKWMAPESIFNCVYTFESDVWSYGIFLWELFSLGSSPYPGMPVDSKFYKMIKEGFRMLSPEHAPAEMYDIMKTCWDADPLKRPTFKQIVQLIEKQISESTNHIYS

Row | IC50 (human c-kit) [nM] | Selectivity vs. cKit (human c-kit) | IC50 (Tie2 [1]) [nM] | IC50 (Tie2 [2]) [nM] | SMILES
1 | 1000 to 10000 | 4 | 100 to 1000 | 100 to 1000 | CCOC(=O)C1(c2cc(-c3ccc(NC(=O)Nc4ccccc4)cc3)c3c(N)nn(C)c3n2)CC1 [Example 1.1, 1-{3-Amino-1-methyl-4-[4-(3-phenyl-ureido)-phenyl]-1H-pyra-zolo[3,4-b]pyridin-6-yl}-cyclopropanecarboxylic acid ethyl ester]
2 | 1000 to 10000 | >30 | ≤ 100 | ≤ 100 | CCOC(=O)C1(c2cc(-c3ccc(NC(=O)Nc4cccc(C(F)(F)F)c4)cc3)c3c(N)nn(C)c3n2)CC1 [Example 1.2, 1-(3-Amino-1-methyl-4-{4-[3-(3-trifluoromethyl-phenyl)-ureido]-phenyl}-1H-pyrazolo[3,4-b]pyridin-6-yl)-cyclopropanecarboxylic acid ethyl ester]
3 | 100 to 1000 | 9 | 100 to 1000 | ≤ 100 | CNC(=O)C1(c2cc(-c3ccc(NC(=O)Nc4cccc(C(F)(F)F)c4)cc3)c3c(N)nn(C)c3n2)CC1 [Example 1.4, 1-(3-Amino-1-methyl-4-{4-[3-(3-trifluoromethyl-phenyl)-ureido]-phenyl}-1H-pyrazolo[3,4-b]pyridin-6-yl)-cyclopropanecarboxylic acid methylamide]
4 | 1000 to 10000 | >100 | 100 to 1000 | ≤ 100 | CCNC(=O)C1(c2cc(-c3ccc(NC(=O)Nc4cccc(C(F)(F)F)c4)cc3)c3c(N)nn(C)c3n2)CC1 [Example 1.5, 1-(3-Amino-1-methyl-4-{4-[3-(3-trifluoromethyl-phenyl)-ureido]-phenyl}-1H-pyrazolo[3,4-b]pyridin-6-yl)-cyclopropanecarboxylic acid ethylamide]
5 | 1000 to 10000 | >100 | ≤ 100 | ≤ 100 | CC(C)NC(=O)C1(c2cc(-c3ccc(NC(=O)Nc4cccc(C(F)(F)F)c4)cc3)c3c(N)nn(C)c3n2)CC1 [Example 1.6, 1-(3-Amino-1-methyl-4-{4-[3-(3-trifluoromethyl-phenyl)-ureido]-phenyl}-1H-pyrazolo[3,4-b]pyridin-6-yl)-cyclopropanecarboxylic acid isopropyl-amide]
6 | 1000 to 10000 | 7 | 100 to 1000 | 100 to 1000 | Cn1nc(N)c2c(-c3ccc(NC(=O)Nc4cccc(C(F)(F)F)c4)cc3)cc(C3(C(=O)Nc4ccccc4)CC3)nc21 [Example 1.7, 1-(3-Amino-1-methyl-4-{4-[3-(3-trifluoromethyl-phenyl)-ureido]-phenyl}-1H-pyrazolo[3,4-b]pyridin-6-yl)-cyclopropanecarboxylic acid phenylamide]
7 | 1000 to 10000 | 15 | ≤ 100 | 100 to 1000 | Cn1nc(N)c2c(-c3ccc(NC(=O)Nc4cccc(C(F)(F)F)c4)cc3)cc(C3(C(=O)NCCN4CCOCC4)CC3)nc21 [Example 1.8, 1-(3-Amino-1-methyl-4-{4-[3-(3-trifluoromethyl-phenyl)-ureido]-phenyl}-1H-pyrazolo[3,4-b]pyridin-6-yl)-cyclopropanecarboxylic acid (2-morpholin-4-yl-ethyl)-amide]
8 | 100 to 1000 | 10 | 100 to 1000 | ≤ 100 | CN(C)CCNC(=O)C1(c2cc(-c3ccc(NC(=O)Nc4cccc(C(F)(F)F)c4)cc3)c3c(N)nn(C)c3n2)CC1 [Example 1.9, 1-(3-Amino-1-methyl-4-{4-[3-(3-trifluoromethyl-phenyl)-ureido]-phenyl}-1H-pyrazolo[3,4-b]pyridin-6-yl)-cyclopropanecarboxylic acid (2-dimethylamino-ethyl)-amide]
9 | 1000 to 10000 | 12 | ≤ 100 | ≤ 100 | CN(C)C(=O)C1(c2cc(-c3ccc(NC(=O)Nc4cccc(C(F)(F)F)c4)cc3)c3c(N)nn(C)c3n2)CC1 [Example 1.10, 1-(3-Amino-1-methyl-4-{4-[3-(3-trifluoromethyl-phenyl)-ureido]-phenyl}-1H-pyrazolo[3,4-b]pyridin-6-yl)-cyclopropanecarboxylic acid dimethylamide]
10 | 1000 to 10000 | 24 | ≤ 100 | ≤ 100 | CCN(CC)C(=O)C1(c2cc(-c3ccc(NC(=O)Nc4cccc(C(F)(F)F)c4)cc3)c3c(N)nn(C)c3n2)CC1 [Example 1.11, 1-(3-Amino-1-methyl-4-{4-[3-(3-trifluoromethyl-phenyl)-ureido]-phenyl}-1H-pyrazolo[3,4-b]pyridin-6-yl)-cyclopropanecarboxylic acid diethylamide]
11 | 1000 to 10000 | >100 | ≤ 100 | ≤ 100 | Cn1nc(N)c2c(-c3ccc(NC(=O)Nc4cccc(C(F)(F)F)c4)cc3)cc(C3(C(=O)NC4CC4)CC3)nc21 [Example 1.12, 1-(3-Amino-1-methyl-4-{4-[3-(3-trifluoromethyl-phenyl)-ureido]-phenyl}-1H-pyrazolo[3,4-b]pyridin-6-yl)-cyclopropanecarboxylic acid cyclopropylamide]
12 | 1000 to 10000 | >100 | ≤ 100 | ≤ 100 | Cn1nc(N)c2c(-c3ccc(NC(=O)Nc4cccc(C(F)(F)F)c4)cc3)cc(C3(C(=O)N4CCCC4)CC3)nc21 [Example 1.13, 1-(4-{3-Amino-1-methyl-6-[1-(pyrrolidine-1-carbonyl)-cyclopropyl]-1H-pyrazolo[3,4-b]pyridin-4-yl}-phenyl)-3-(3-trifluoromethyl-phenyl)-urea]
13 | 100 to 1000 | 11 | 100 to 1000 | ≤ 100 | Cn1nc(N)c2c(-c3ccc(NC(=O)Nc4cccc(C(F)(F)F)c4)cc3)cc(C3(C(=O)NCCO)CC3)nc21 [Example 1.14, 1-(3-Amino-1-methyl-4-{4-[3-(3-trifluoromethyl-phenyl)-ureido]-phenyl}-1H-pyrazolo[3,4-b]pyridin-6-yl)-cyclopropanecarboxylic acid (2-hydroxy-ethyl)-amide]
14 | 1000 to 10000 | 19 |  | ≤ 100 | CN(C)C(=O)C[C@@H]1C[C@H](c2cc(-c3ccc(NC(=O)Nc4cccc(C(F)(F)F)c4)cc3)c3c(N)nn(C)c3n2)C1(C)C [Example 8.4, 2-[3-(3-Amino-1-methyl-4-{4-[3-(3-trifluoromethyl-phenyl)-ureido]-phenyl}-1H-pyrazolo[3,4-b]pyridin-6-yl)-2,2-dimethyl-cyclobutyl]-N,N-dimethyl-acetamide]
